We go through 1 molecule from paper PMC11212140, “Molecular Bidents with Two Electrophilic Warheads as a New Pharmacological Modality” (ACS Central Science, 2024).

In test [1] the test system is EGFR, ERK1/2, and Akt phosphorylation. Put plainly: Immunoblot of EGFR signaling pathway in EGFR-mutated Ba/F3 cells. The test is classed as cell-based. As to conditions: EGFR^L858R, EGFR^L858R/C797S and EGFR^L858R/C775S Ba/F3 cells, 6 h. Here is the method:
Figure 5 ZNL-0056 covalently engages Cys775 and Cys797 in EGFR Ba/F3 cells. (A) The average IC50 values (mean ± S.D.) of the indicated compounds in EGFR^L858R Ba/F3, EGFR^L858R/C797S Ba/F3, and EGFR^L858R/C775S Ba/F3 cells after […] treatment. The graph was generated from three independent experiments, each performed with four replicates. (B) Immunoblot assessment of the effect of ZNL-0056 on the EGFR signaling pathway in EGFR^L858R Ba/F3, EGFR^L858R/C797S Ba/F3, and EGFR^L858R/C775S Ba/F3 cells after 6 h treatment. Representative data from two independent experiments are shown.
For infection of Ba/F3 cells, 2.5 mL of viral supernatant and 8 μg/mL polybrene was added to 2.5 million cells per well in six-well plates. The plate was centrifuged at 2500 rpm for 90 minutes at 37 °C for the spin infection. […]
Cells were lysed in RIPA buffer (150 mM NaCl, 1.0% IGEPAL® CA-630, 0.5% sodium deoxycholate, 0.1% SDS, 50 mM Tris, pH 8.0) (Sigma, Cat# R0278) with protease inhibitor and phosphatase inhibitor (Roche). The protein concentrations were measured by BCA analysis (Thermo Fisher Scientific, Cat # PI23225). […]
or IRDye 680RD goat anti-Mouse IgG (LICOR Biosciences , Cat # 926-68070) secondary antibodies at room temperature for 1 hour. The membranes were detected on Odyssey CLx system. […]

The target of the next test is BLK (Homo sapiens, UniProt P51451). Put plainly: Z'-LYTE biochemical assay. As to conditions: read-out: IC50 (nM) against BLK. The source says:
(§1) Table S2. Biochemical activities against a panel of kinase targets […]
(§2) aIC50 (nM) against EGFR L858R, BTK, JAK3, ITK and BLK were obtained with Z’-LYTE biochemical assay. bIC50 (nM) against MEK5 was obtained with LanthaScreen Binding activity assay. c Kd (nM) of MKK7 were obtained from KdELECT assays (DiscoverX). […]
(§3) (1 picture or pasted object on this page, not shown here)

A further test concerns the target BTK (Homo sapiens, UniProt Q06187). In words: Z'-LYTE biochemical assay. The conditions noted are these: read-out: IC50 (nM) against BTK.
Description: as §1, §2, §3

A further test has as its target EGFR L858R (Homo sapiens, UniProt P00533, L858R). In words: Z'-LYTE biochemical assay. As to conditions: read-out: IC50 (nM) against EGFR L858R.
Description: as §1, §2, §3

The next test concerns the target ITK (Homo sapiens, UniProt Q08881). In words: Z'-LYTE biochemical assay. The conditions noted are these: read-out: IC50 (nM) against ITK.
Description: as §1, §2, §3

For another test, the target named is JAK3 (Homo sapiens, UniProt P52333). In words: Z'-LYTE biochemical assay. As to conditions: read-out: IC50 (nM) against JAK3.
Description: as §1, §2, §3

A further test deals with T1, EGFR^L858R kinase domain.
T1 construct: purified recombinant EGFR^L858R kinase domain treated by the compounds; made in house
In words: Determining sites of probe modification by MS. In kind it is biochemical. As to conditions: EGFR^L858R protein, mass spectrometry. The text has this: Covalent docking (CovDock in Schrodinger software suite) was used to predict binding modes and scores of designed bident and mono-valent molecules. Thorough mode was used for docking and top 5 poses for each molecule were inspected visually to identify the most likely binding conformation based on the known core scaffold binding mode. Hinge hydrogen bonds of the core scaffolds were used as constraints in docking calculations. […]
reactive residues, only one cysteine was specified for covalent bond formation during docking of […]
for bident molecules, a proper binding mode required the other warhead in close proximity with its intended reactive cysteine. To obtain the final predicted binding mode in Figure 2B, the pre-reaction cysteine and warhead were manually linked with proper chemical bond, and the complex was optimized using receptor-ligand complex optimization protocol in Schrodinger suite with default settings. The final optimized complex was compared against the original binding mode to ensure minimal changes to the ligand and receptor residue conformations. […]
EGFR protein was treated with indicated probe for 2 hours at 30 °C in 50 mM HEPES buffer 100 mM NaCl pH 7.5. […] Peptides were desalted by C18 and analyzed by nanoLC-MS using a Waters NanoAcquity UPLC (Waters, Milford, MA) interfaced to a Orbitrap QExactive HF mass spectrometer (ThermoFisher Scientific, San Jose, CA). […]

Sequence of JAK3 (P52333 whole entry): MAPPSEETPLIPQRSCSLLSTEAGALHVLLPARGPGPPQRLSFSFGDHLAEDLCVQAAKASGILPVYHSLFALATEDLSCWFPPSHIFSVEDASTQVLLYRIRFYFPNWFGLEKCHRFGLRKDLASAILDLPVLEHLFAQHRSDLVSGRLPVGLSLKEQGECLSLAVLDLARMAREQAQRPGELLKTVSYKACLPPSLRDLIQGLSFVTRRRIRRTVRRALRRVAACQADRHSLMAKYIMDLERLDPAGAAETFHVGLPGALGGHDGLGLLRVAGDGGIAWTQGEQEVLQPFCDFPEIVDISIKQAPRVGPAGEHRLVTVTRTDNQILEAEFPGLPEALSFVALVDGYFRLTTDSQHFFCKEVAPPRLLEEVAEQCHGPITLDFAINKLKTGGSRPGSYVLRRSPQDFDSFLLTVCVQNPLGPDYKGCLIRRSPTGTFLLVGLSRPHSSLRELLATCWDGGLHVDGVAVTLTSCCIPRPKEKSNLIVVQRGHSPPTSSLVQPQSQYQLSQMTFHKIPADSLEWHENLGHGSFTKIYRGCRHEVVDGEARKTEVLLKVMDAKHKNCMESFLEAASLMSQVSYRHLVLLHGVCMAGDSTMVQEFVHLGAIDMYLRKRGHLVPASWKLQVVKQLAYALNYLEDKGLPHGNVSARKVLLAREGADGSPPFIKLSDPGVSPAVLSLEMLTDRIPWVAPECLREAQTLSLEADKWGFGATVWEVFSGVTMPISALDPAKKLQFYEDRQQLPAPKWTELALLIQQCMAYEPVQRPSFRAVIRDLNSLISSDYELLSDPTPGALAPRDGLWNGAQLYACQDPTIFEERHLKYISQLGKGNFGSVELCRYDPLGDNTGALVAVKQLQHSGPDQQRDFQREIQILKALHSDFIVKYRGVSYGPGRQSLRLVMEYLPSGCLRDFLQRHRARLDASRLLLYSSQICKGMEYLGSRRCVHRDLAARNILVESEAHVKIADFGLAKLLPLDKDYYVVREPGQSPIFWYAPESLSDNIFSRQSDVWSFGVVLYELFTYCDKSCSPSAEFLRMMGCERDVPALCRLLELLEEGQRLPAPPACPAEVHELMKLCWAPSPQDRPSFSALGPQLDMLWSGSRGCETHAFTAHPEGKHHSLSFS
Sequence of BLK (P51451 whole entry): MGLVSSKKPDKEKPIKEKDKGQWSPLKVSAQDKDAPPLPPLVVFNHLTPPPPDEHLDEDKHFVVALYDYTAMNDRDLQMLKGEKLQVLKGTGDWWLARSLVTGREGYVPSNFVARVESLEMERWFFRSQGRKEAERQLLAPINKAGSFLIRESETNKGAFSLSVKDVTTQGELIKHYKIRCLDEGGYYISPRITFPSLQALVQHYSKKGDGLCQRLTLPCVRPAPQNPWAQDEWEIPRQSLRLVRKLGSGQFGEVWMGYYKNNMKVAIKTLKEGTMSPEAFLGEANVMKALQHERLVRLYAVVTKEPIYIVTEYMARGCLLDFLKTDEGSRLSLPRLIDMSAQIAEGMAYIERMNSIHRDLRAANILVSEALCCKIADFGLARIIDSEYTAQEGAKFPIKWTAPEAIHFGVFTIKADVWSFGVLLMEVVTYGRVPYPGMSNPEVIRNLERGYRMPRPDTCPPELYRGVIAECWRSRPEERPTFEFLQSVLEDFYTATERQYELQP
Sequence of EGFR L858R (P00533 25-1210 L858R): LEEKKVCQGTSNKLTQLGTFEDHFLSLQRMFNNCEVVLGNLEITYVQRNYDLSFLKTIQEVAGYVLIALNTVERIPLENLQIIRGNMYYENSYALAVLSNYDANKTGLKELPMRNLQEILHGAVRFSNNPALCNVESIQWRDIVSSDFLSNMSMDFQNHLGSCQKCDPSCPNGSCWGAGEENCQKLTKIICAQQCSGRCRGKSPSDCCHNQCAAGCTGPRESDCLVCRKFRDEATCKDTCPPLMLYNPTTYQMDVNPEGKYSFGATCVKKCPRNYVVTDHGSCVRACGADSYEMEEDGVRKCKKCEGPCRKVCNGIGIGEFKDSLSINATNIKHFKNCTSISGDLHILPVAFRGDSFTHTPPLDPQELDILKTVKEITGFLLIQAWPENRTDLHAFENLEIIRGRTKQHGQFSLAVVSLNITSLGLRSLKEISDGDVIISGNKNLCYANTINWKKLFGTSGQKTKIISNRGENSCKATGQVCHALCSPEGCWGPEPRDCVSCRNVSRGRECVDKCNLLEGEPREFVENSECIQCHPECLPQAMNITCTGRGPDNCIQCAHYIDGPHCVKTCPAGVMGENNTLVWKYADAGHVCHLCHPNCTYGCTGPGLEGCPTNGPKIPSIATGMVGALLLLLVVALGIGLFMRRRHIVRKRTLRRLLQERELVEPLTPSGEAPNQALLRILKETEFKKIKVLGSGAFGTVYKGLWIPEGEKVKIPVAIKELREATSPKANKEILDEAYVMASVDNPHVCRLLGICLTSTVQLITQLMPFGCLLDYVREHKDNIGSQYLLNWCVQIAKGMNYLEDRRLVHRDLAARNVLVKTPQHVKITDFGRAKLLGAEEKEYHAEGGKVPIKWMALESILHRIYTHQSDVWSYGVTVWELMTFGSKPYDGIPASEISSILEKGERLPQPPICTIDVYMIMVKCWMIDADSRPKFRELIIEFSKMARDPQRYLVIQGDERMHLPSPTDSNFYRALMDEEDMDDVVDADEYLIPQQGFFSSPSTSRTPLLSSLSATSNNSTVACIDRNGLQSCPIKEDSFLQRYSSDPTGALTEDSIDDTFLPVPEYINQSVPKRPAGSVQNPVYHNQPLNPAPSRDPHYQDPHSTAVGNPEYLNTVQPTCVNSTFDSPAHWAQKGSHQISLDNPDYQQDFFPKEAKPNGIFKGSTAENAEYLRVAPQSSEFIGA
Sequence of ITK (Q08881 whole entry): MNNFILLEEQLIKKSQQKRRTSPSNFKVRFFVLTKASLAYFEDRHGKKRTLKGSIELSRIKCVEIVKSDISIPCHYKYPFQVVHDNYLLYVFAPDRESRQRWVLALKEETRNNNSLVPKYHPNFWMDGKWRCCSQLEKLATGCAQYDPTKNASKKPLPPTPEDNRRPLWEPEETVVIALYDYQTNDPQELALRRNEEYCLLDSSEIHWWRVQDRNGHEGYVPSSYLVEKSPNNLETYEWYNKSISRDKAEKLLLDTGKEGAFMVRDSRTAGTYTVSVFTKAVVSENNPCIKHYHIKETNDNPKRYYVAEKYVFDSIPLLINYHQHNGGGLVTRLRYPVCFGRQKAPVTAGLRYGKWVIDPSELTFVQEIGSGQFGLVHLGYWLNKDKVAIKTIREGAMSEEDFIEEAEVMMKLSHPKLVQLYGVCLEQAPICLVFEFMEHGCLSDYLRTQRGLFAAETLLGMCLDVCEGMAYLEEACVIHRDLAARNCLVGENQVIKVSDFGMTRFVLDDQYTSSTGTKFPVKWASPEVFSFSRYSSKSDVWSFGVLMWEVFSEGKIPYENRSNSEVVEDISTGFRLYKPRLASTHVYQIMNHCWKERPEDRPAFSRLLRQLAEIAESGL
Sequence of BTK (Q06187 whole entry): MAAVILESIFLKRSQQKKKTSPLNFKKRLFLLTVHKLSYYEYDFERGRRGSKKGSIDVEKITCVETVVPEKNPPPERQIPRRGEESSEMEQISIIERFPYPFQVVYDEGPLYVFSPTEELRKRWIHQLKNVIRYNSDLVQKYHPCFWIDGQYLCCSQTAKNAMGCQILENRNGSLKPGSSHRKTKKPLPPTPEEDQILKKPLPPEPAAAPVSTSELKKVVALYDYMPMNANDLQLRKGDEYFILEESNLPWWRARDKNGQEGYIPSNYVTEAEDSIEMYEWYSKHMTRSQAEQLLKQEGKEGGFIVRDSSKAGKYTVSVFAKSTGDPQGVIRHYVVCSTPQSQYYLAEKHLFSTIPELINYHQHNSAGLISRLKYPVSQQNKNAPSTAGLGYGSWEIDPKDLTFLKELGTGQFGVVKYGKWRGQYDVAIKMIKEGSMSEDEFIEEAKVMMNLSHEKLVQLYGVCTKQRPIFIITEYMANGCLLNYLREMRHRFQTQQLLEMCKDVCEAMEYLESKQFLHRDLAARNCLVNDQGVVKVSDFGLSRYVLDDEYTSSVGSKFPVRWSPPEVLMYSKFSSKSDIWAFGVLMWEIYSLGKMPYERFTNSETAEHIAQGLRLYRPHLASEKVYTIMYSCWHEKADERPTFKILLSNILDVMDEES

A word on the IC50: it is the midpoint of a concentration-inhibition curve. Regarding `C=CC(=O)Nc1cc(C(=O)Nc2nc3cccc(C)c3n2[C@@H]2CCCCN(C(=O)C=C)C2)cs1` [ZNL-0056], the “inhibition of EGFR, ERK1/2, and Akt phosphorylation” value in test [1] is “significantly inhibited”. The IC50 came out at 3.17 nM at BLK; 1.13 nM on BTK; 6.21 nM on EGFR L858R; 7.81 nM on ITK; 5.79 nM at JAK3. Besides, in the test on EGFR^L858R kinase domain, the “in vitro labeling of Cys797 and Cys775” value is recorded as “high in vitro labeling efficacy”.
